Experimental data taken from PubChem BioAssay AID330 (DTP/NCI, 2004).
Values joined by “and” are separate entries in the source; they are usually repeats but may differ in a detail not shown here. Identical values can stand only once. Inconclusive results and toxic doses are left out. The calls were made as follows: active = survival T/C of 150% or more; inactive = T/C below 125% in these data.

System: P388 leukemia ip, CD2F1 mice, survival T/C
Test: NCI In Vivo Anticancer Drug Screen. Data for tumor model P388 Leukemia (intraperitoneal) in CD2F1 (CDF1) mice
Conditions: endpoint: median survival time, higher = longer survival
Procedure, shortened: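 Mice carrying the transplanted tumor received test compound or vehicle. Survival was recorded in each group, and the value is the treated-group measurement divided by that of the vehicle-treated control group.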

[1] = dose: 50.0 mg/kg/injection, schedule: Q01DX009 (ip), vehicle: saline with Tween-80
[2] = dose: 100.0 mg/kg/injection, schedule: Q01DX009 (ip), vehicle: saline with Tween-80
[3] = dose: 50.0 mg/kg/injection, schedule: Q01DX005 (ip), vehicle: saline
[4] = dose: 50.0 mg/kg/injection, schedule: Q01DX005 (ip), vehicle: saline with Tween-80
[5] = dose: 100.0 mg/kg/injection, schedule: Q01DX005 (ip), vehicle: saline with Tween-80
[6] = dose: 200.0 mg/kg/injection, schedule: Q01DX005 (ip), vehicle: saline with Tween-80
[7] = dose: 100.0 mg/kg/injection, schedule: Q01DX005 (ip), vehicle: saline
[8] = dose: 200.0 mg/kg/injection, schedule: Q01DX005 (ip), vehicle: saline
[9] = dose: 60.0 mg/kg/injection, schedule: Q01DX005 (ip), vehicle: Klucel (hydroxypropylcellulose) (HPC)
[10] = dose: 120.0 mg/kg/injection, schedule: Q01DX005 (ip), vehicle: Klucel (hydroxypropylcellulose) (HPC)
[11] = dose: 240.0 mg/kg/injection, schedule: Q01DX005 (ip), vehicle: Klucel (hydroxypropylcellulose) (HPC)
[12] = dose: 12.5 mg/kg/injection, schedule: Q01DX005 (ip), vehicle: Klucel (hydroxypropylcellulose) (HPC)
[13] = dose: 25.0 mg/kg/injection, schedule: Q01DX005 (ip), vehicle: Klucel (hydroxypropylcellulose) (HPC)
[14] = dose: 50.0 mg/kg/injection, schedule: Q01DX005 (ip), vehicle: Klucel (hydroxypropylcellulose) (HPC)
[15] = dose: 100.0 mg/kg/injection, schedule: Q04DX003 (ip), vehicle: saline with Tween-80
[16] = dose: 200.0 mg/kg/injection, schedule: Q04DX003 (ip), vehicle: saline with Tween-80
[17] = dose: 12.5 mg/kg/injection, schedule: Q01DX009 (ip), vehicle: saline with Tween-80
[18] = dose: 12.5 mg/kg/injection, schedule: Q01DX009 (ip), vehicle: saline
[19] = dose: 25.0 mg/kg/injection, schedule: Q01DX009 (ip), vehicle: saline with Tween-80
[20] = dose: 25.0 mg/kg/injection, schedule: Q01DX009 (ip), vehicle: saline

Measured: T/C

CCOc1cc(/C=C2\SC(=O)N(CC)C2=O)ccc1O
inactive: [1] 108 % of control | [2] 109 % of control | dose: 200.0 mg/kg/injection, schedule: Q01DX009 (ip), vehicle: saline with Tween-80 90 % of control

O=[N+]([O-])c1ccc(-[n+]2ccc3ccccc3c2)c([N+](=O)[O-])c1
inactive: dose: 12.5 mg/kg/injection, schedule: Q01DX005 (ip), vehicle: saline 110 % of control | dose: 25.0 mg/kg/injection, schedule: Q01DX005 (ip), vehicle: saline 106 % of control | [3] 104 % of control and 111 % of control

Cn1c(NC(=O)C(F)(F)F)cc(=O)n(C)c1=O
inactive: [4] 102 % of control | [5] 95 % of control | [6] 101 % of control

CCN(CC)CCNC(=O)CCC(=O)O
inactive: [3] 102 % of control | [7] 100 % of control | [8] 100 % of control

O/N=C1/CCN2CCCc3cccc1c32
inactive: dose: 132.0 mg/kg/injection, schedule: Q01DX001 (ip), vehicle: saline with Tween-80 95 % of control | dose: 200.0 mg/kg/injection, schedule: Q01DX001 (ip), vehicle: saline with Tween-80 100 % of control | dose: 300.0 mg/kg/injection, schedule: Q01DX001 (ip), vehicle: saline with Tween-80 100 % of control

C1CCCC2(CCC1)OCCO2
inactive: dose: 100.0 mg/kg/injection, schedule: Q04DX003 (ip), vehicle: Klucel (hydroxypropylcellulose) (HPC) 106 % of control | dose: 200.0 mg/kg/injection, schedule: Q04DX003 (ip), vehicle: Klucel (hydroxypropylcellulose) (HPC) 102 % of control | dose: 400.0 mg/kg/injection, schedule: Q04DX003 (ip), vehicle: Klucel (hydroxypropylcellulose) (HPC) 95 % of control

c1ccc2c(c1)[nH]c1c3ccccc3sc21
inactive: [9] 106 % of control | [10] 107 % of control | [11] 105 % of control

CC(=O)OCCSCCO
inactive: dose: 25.0 mg/kg/injection, schedule: Q01DX009 (ip), vehicle: water 94 % of control | dose: 50.0 mg/kg/injection, schedule: Q01DX009 (ip), vehicle: water 99 % of control | dose: 100.0 mg/kg/injection, schedule: Q01DX009 (ip), vehicle: water 99 % of control | dose: 200.0 mg/kg/injection, schedule: Q01DX009 (ip), vehicle: water 104 % of control | dose: 400.0 mg/kg/injection, schedule: Q01DX009 (ip), vehicle: water 99 % of control

CCOC(=O)C1=C(C)NC(=O)NC1c1coc2cc(C)cc(C)c2c1=O (stereo not drawn)
inactive: [12] 86 % of control | [13] 91 % of control | [14] 98 % of control and 96 % of control

NC(C(=O)O)C(O)c1ccc2c(c1)OCO2 (stereo not drawn)
inactive: [15] 100 % of control | [16] 100 % of control | dose: 400.0 mg/kg/injection, schedule: Q04DX003 (ip), vehicle: saline with Tween-80 100 % of control

C[n+]1ccccc1-c1ccc[n+](CCC[n+]2cccc(-c3cccc[n+]3C)c2)c1
inactive: dose: 100.0 mg/kg/injection, schedule: Q04DX002 (ip), vehicle: saline 105 % of control | dose: 200.0 mg/kg/injection, schedule: Q04DX002 (ip), vehicle: saline 102 % of control | dose: 400.0 mg/kg/injection, schedule: Q04DX002 (ip), vehicle: saline 108 % of control

O=C1CCC(N(CC#CCN(C2=NC(=O)CC2)c2ccccc2)c2ccccc2)=N1
inactive: [9] 103 % of control | [10] 100 % of control | [11] 97 % of control

CCCCCN(CCCCC)CCCCCCCCN1CCCc2ccccc21
inactive: [4] 106 % of control | [5] 108 % of control | [6] 117 % of control

O=[N+]([O-])c1ccc(N2CCN(CCO)CC2)c2c1no[n+]2[O-]
inactive: dose: 3.75 mg/kg/injection, schedule: Q01DX009 (ip), vehicle: saline 98 % of control and 100 % of control and 86 % of control | dose: 7.5 mg/kg/injection, schedule: Q01DX009 (ip), vehicle: saline 100 % of control and 97 % of control | dose: 15.0 mg/kg/injection, schedule: Q01DX009 (ip), vehicle: saline 103 % of control (2×) and 90 % of control | dose: 30.0 mg/kg/injection, schedule: Q01DX009 (ip), vehicle: saline 100 % of control and 101 % of control and 95 % of control | dose: 50.0 mg/kg/injection, schedule: Q01DX009 (ip), vehicle: suspension in saline 109 % of control

C=C(C)C(=NC(C)(C)C)N(C(C)C)C(C)C
inactive: [12] 102 % of control | [17] 89 % of control | [18] 102 % of control | [13] 96 % of control | [19] 97 % of control | [20] 101 % of control | [14] 98 % of control | [1] 100 % of control and 120 % of control | [2] 108 % of control

O=C(O)c1ccc(N=Nc2ccc(N(CCCl)CCCl)cc2C(=O)O)cc1
inactive: dose: 50.0 mg/kg/injection, schedule: Q01DX001 (ip), vehicle: Klucel (hydroxypropylcellulose) (HPC) 100 % of control | dose: 100.0 mg/kg/injection, schedule: Q01DX001 (ip), vehicle: Klucel (hydroxypropylcellulose) (HPC) 107 % of control

CC(=O)[C@@]1(O)CC[C@H]2[C@@H]3C[C@H](C)C4=CC(=O)CC[C@]4(C)[C@H]3[C@@H](O)C[C@@]21C
inactive: dose: 66.0 mg/kg/injection, schedule: Q01DX009 (ip), vehicle: saline with Tween-80 100 % of control | [2] 100 % of control | dose: 150.0 mg/kg/injection, schedule: Q01DX009 (ip), vehicle: saline with Tween-80 104 % of control

CC1OC(c2c(Cl)cccc2[N+](=O)[O-])OC1C (stereo not drawn)
inactive: [9] 99 % of control | [10] 91 % of control | [11] 92 % of control

CC(Cl)S(N)(=O)=O (stereo not drawn)
inactive: [3] 105 % of control | [7] 98 % of control | [8] 105 % of control

CC(C)[Si](C#CC[Si](C(C)C)(C(C)C)C(C)C)(C(C)C)C(C)C
inactive: dose: 60.0 mg/kg/injection, schedule: Q01DX005 (ip), vehicle: saline with Tween-80 105 % of control | dose: 120.0 mg/kg/injection, schedule: Q01DX005 (ip), vehicle: saline with Tween-80 98 % of control | dose: 240.0 mg/kg/injection, schedule: Q01DX005 (ip), vehicle: saline with Tween-80 100 % of control

C=C(C)c1nc(Oc2ccccc2)nc(Oc2ccccc2)n1
inactive: dose: 200.0 mg/kg/injection, schedule: Q01DX001 (ip), vehicle: Klucel (hydroxypropylcellulose) (HPC) 88 % of control | dose: 400.0 mg/kg/injection, schedule: Q01DX001 (ip), vehicle: Klucel (hydroxypropylcellulose) (HPC) 89 % of control

O=C1C(C(=NCCO)c2ccccc2)=C(O)c2ccccc21
inactive: dose: 25.0 mg/kg/injection, schedule: Q04DX002 (ip), vehicle: saline with Tween-80 90 % of control | dose: 50.0 mg/kg/injection, schedule: Q04DX002 (ip), vehicle: saline with Tween-80 101 % of control | dose: 100.0 mg/kg/injection, schedule: Q04DX002 (ip), vehicle: saline with Tween-80 89 % of control

OC(c1cc2ccc(C(F)(F)F)cc2c2cc(C(F)(F)F)ccc12)C1CCCCN1 (stereo not drawn)
inactive: [17] 102 % of control and 107 % of control | [19] 100 % of control and 102 % of control

COc1cc(N2C(N)=NC(N)=NC2(C)C)cc(OC)c1OC
inactive: dose: 6.25 mg/kg/injection, schedule: Q01DX009 (ip), vehicle: saline 100 % of control | [18] 95 % of control | [20] 90 % of control

O=C(Nc1ccccc1O)/C(Cl)=C/Cl
inactive: dose: 33.0 mg/kg/injection, schedule: Q01DX009 (ip), vehicle: saline with Tween-80 120 % of control | dose: 75.0 mg/kg/injection, schedule: Q01DX009 (ip), vehicle: saline with Tween-80 115 % of control | [15] 105 % of control | [16] 120 % of control
